Four molecules from PubChem BioAssay AID1500 (NMMLSC, 2009) can be followed below.

In general, inhibition refers to how much of the control response was suppressed.

The test system of the assay is S. aureus cells, FITC-AIP binding, flow cytometry. The assay is described as follows: displacement of labeled AIP from bacterial receptors – strains RN6390, NM300, flow cytometry, mechanism study for S. aureus quorum sensing inhibitors, late-stage follow-up (AID 1500). The following applies: stronger effect = higher value. For orientation: A flow cytometer gives signals particle by particle.

The source made the active and inactive calls.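 How the source made its calls: active means compounds cutting labeled signal peptide binding to staph cells by half or more; inactive means the rest.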

As to `CC1CCCN(C(C(=O)Nc2ccc3c(c2)OCCO3)c2ccccc2)C1` (stereo unspecified), the inhibition (at 12 µM) was 26% (inactive). As to `CC1CCCN(C(C(=O)Nc2ccc3c(c2)OCO3)c2ccccc2)C1` (stereo unspecified), the inhibition (at 12 µM) is 20% (inactive).

Turning to `CCc1oc2ccccc2c1C(=O)c1cc(Br)c(O)c(Br)c1`, the inhibition runs as follows: (at 6 µM) 65%; (strain RN6390, at 6 µM) 69%. Consider `Cc1c(Cl)cccc1Nc1ccccc1C(=O)O`, for which the inhibition runs as follows: (at 30 µM) 67%; (strain RN6390, at 30 µM) 60%.
